Data from patent US11266655B2, “Methods and compositions for treating urea cycle disorders” (Camp4 Therapeutics Corporation, priority 2019, dated 2022).

Columns and labels:
CPS1 [1] = assay: CPS1 siRNA with or without JAK1 FANA ASO, CPS1 mRNA; type: cell-based, human; settings: FIG. 24A, 24B
Protocol: (§1) Next, the link between CPS1 expression and OTC expression was investigated. siRNA targeting CPS1 was added to wells with media and the cells added to the wells (reverse transfection). The next day, the media was refreshed, and in some samples a FANA antisense oligonucleotide (ASO) directed to JAK1 was added to the wells. A scrambled ASO was used as a control for the treatment. After incubating with the JAK1 or scrambled ASO for 48 h, the cells were re-transfected with siRNA targeting CPS1 and incubated overnight (forward transfection) after which the media was refreshed. Cells were further incubated for 24 hours and harvested for analysis of the CPS1, OTC, and JAK1 mRNA expression levels. Similar methods were used to prepare cells with only the JAK1 FANA treatment and the CPS1 forward transfection, or only the CPS1 forward transfection. Scrambled RNA (NTC) was used as a control for CPS1 knockdown.

CPS1 [2] = assay: JAK1 FANA ASO knockdown in primary human hepatocytes, CPS1 mRNA; type: cell-based; settings: 10 uM FANA ASO, 5 days post-plating, vs scrambled control; listed as FANA (2′-deoxy-2′-fluoro-beta-D-arabinonucleic acid antisense) RNA
OTC [3] = assay: JAK1 FANA ASO knockdown in primary human hepatocytes, OTC mRNA; type: cell-based; settings: 10 uM FANA ASO, 5 days post-plating, vs scrambled control; listed as FANA (2′-deoxy-2′-fluoro-beta-D-arabinonucleic acid antisense) RNA
OTC [4] = assay: CPS1 siRNA with or without JAK1 FANA ASO, OTC mRNA; type: cell-based, human; settings: FIG. 24C, 24D
Protocol: as §1

Arg1 = assay: EC144 in C57/B16 mice, liver Arg1 mRNA by qRT-PCR; type: in vivo, mouse; settings: 5 mg/kg i.p. once daily for 4 days, FIG. 32
Protocol: (§2) The in vivo effect of EC144 was assessed.

Nags = settings: mice, 5 mg/kg i.p. once daily for 4 days, FIG. 32
Protocol: After the final dose, the animals were sacrificed at 5 h, 7 h or 9 h post-dose and their livers and serum collected and flash frozen. The livers were processed and total RNA extracted. mRNA levels for Otc, Cps1, Ass1, As1, Arg1 and Nags were measured using qRT-PCR relative to the geometric mean of the expression levels of several housekeeping genes (Actb, B2m, Ppia, Gapdh, Hprt, Gusb).

[5] = EC144 in C57/B16 mice, liver As1 mRNA by qRT-PCR; type: in vivo, mouse; settings: 5 mg/kg i.p. once daily for 4 days, FIG. 32
Protocol: as §2

Cps1 [6] = assay: EC144 in C57/B16 mice, liver Cps1 mRNA by qRT-PCR; type: in vivo, mouse
Protocol: as §2

[7] = EC144 in C57/B16 mice, serum urea levels (Blood Urea Nitrogen Assay Kit); type: in vivo, mouse; settings: 5 mg/kg i.p. once daily for 4 days, 5 h, 7 h or 9 h post-dose, vs vehicle
Protocol: as §2
Serum urea levels were measured using the Blood Urea Nitrogen Assay Kit (Invitrogen, Cat #EIABUN) per manufacturer's instructions. The data was plotted in GraphPad and statistical significance of the data sets determined using the Holm-Sidak method for multiple comparisons (α=0.05).

Otc [8] = assay: EC144 in C57/B16 mice, liver Otc mRNA by qRT-PCR; type: in vivo, mouse
Protocol: as §2

Ass1 = assay: EC144 in C57/B16 mice, liver Ass1 mRNA by qRT-PCR; type: in vivo, mouse; settings: 5 mg/kg i.p. once daily for 4 days, FIG. 32
Protocol: as §2

[9] = mice, 5 mg/kg i.p. once daily for 4 days, FIG. 32

Compound | CPS1 mRNA levels after CPS1 siRNA and/or JAK1 FANA (CPS1 [1]) | CPS1 gene expression after JAK1 FANA ASO (CPS1 [2]) | OTC gene expression after JAK1 FANA ASO (OTC [3]) | OTC expression after CPS1 siRNA and/or JAK1 FANA (OTC [4]) | Arg1 expression in vivo (Arg1) | Nags expression in vivo (Nags) | As1 expression in vivo [5] | Cps1 expression over time (Cps1 [6]; 9 h after administration as compared to 5 h) | Cps1 expression in vivo (Cps1 [6]; at 5 h, 7 h, and 9 h after administration, FIG. 33B) | Cps1 expression in vivo (Cps1 [6]; [9]) | serum urea levels [7] | Otc expression in vivo (Otc [8]; 5 h after administration, FIG. 33A) | Otc expression in vivo (Otc [8]; [9]) | Ass1 expression in vivo (Ass1)
JAK1 FANA: 2′-deoxy-2′-fluoro-beta-D-arabinonucleic acid antisense oligonucleotide to JAK1, sequence TTGTAGCTGATGTCCTTGGG (FANA (2'-fluoro-arabino) ASO, modification pattern and linkages not given here) | increased | increased | increased | increased |  |  |  |  |  |  |  |  |  | 
COc1c(C)cnc(Cn2cc(C#CCC(C)(C)O)c3c(Cl)nc(N)nc32)c1C [EC144] |  |  |  |  | increased | increased | increased | greater expression | increased | increased | increased | increased | increased | increased
